Laboratory results taken from ChEMBL document CHEMBL1201862, “PubChem BioAssay data set” (2004).
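Cultured in 96-well plates, cells were exposed to test compound for 48 hours across five concentrations. At the GI50, growth is halved.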 Calls of active or inactive are those of the source. Cut-off read from the data, not from the text of the source: active = GI50 up to about 1.1 µM and inactive = higher.

Key:
Assay in all cases: NCI anticancer screen, dose series, 48 h
[1] = test system: A549
[2] = test system: CAKI-1
[3] = test system: DU-145
[4] = test system: HCC 2998
[5] = test system: HL-60
[6] = test system: HT-29
[7] = test system: M14
[8] = test system: MCF7
[9] = test system: Malme-3M
[10] = test system: NCI-H460
[11] = test system: OVCAR-4
[12] = test system: PC-3
[13] = test system: SF-539
[14] = test system: SK-MEL-2
[15] = test system: SK-MEL-5
[16] = test system: UACC-257
[17] = test system: UACC-62
[18] = test system: OVCAR-3
[19] = test system: UO-31
[20] = test system: SF-268

| SMILES | GI50 [1] | GI50 [2] | GI50 [3] | GI50 [4] | GI50 [5] | GI50 [6] | GI50 [7] | GI50 [8] | GI50 [9] | GI50 [10] | GI50 [11] | GI50 [12] | GI50 [13] | GI50 [14] | GI50 [15] | GI50 [16] | GI50 [17] | GI50 [18] | GI50 [19] | GI50 [20] |
| --- | --- | --- | --- | --- | --- | --- | --- | --- | --- | --- | --- | --- | --- | --- | --- | --- | --- | --- | --- | --- |
| CC(C)[N+]([O-])(CCCNc1c2ccccc2nc2cccc([N+](=O)[O-])c12)C(C)C | < 0.0282 µM (active) | 0.492 µM (active) | < 0.026 µM (active) | < 0.01 µM (active) | < 0.0428 µM (active) | < 0.0202 µM (active) | 0.0347 µM (active) | < 0.0272 µM (active) | < 0.041 µM (active) | 0.06 µM (active) | 0.153 µM (active) | < 0.0473 µM (active) | 0.047 µM (active) | 0.234 µM (active) | < 0.0167 µM (active) | 0.064 µM (active) | 0.148 µM (active) |  |  |  |
| CC(C)(CNC(=O)/C(Cl)=C(/Cl)C(=O)O)CNC(=O)/C(Cl)=C(/Cl)C(=O)O | > 100 µM (inactive) | > 100 µM (inactive) | > 100 µM (inactive) | > 100 µM (inactive) | 34 µM (inactive) | 48.5 µM (inactive) |  | 59.6 µM (inactive) |  | > 100 µM (inactive) | > 100 µM (inactive) | > 100 µM (inactive) | 67.6 µM (inactive) | > 100 µM (inactive) | > 100 µM (inactive) | > 100 µM (inactive) | > 100 µM (inactive) | > 100 µM (inactive) | > 100 µM (inactive) |  |
| CC(=O)O[C@H]1C(=O)[C@@]2(C)[C@H]([C@H](OC(=O)c3ccccc3)[C@]3(O)C[C@H](OC(=O)[C@H](O)[C@@H](NC(=O)c4ccoc4)c4ccccc4)C(C)=C1C3(C)C)[C@]1(OC(C)=O)CO[C@@H]1C[C@@H]2O | 0.0386 µM (active) |  | 0.0624 µM (active) | 0.0216 µM (active) | 0.0136 µM (active) | < 0.01 µM (active) | 0.09 µM (active) | 0.0265 µM (active) |  | 0.023 µM (active) | 31.1 µM (inactive) | 0.0212 µM (active) | 0.0292 µM (active) | 0.0225 µM (active) | 0.028 µM (active) | 16 µM (inactive) | 0.0776 µM (active) | < 0.01 µM (active) | 3.39 µM (inactive) | 0.0325 µM (active) |
| Nc1ccccc1.O=P(O)(O)c1ccccc1 | > 100 µM (inactive) | > 100 µM (inactive) | > 100 µM (inactive) | > 100 µM (inactive) | > 100 µM (inactive) | > 100 µM (inactive) | > 100 µM (inactive) | > 100 µM (inactive) | > 100 µM (inactive) | > 100 µM (inactive) | > 100 µM (inactive) | > 100 µM (inactive) |  | > 100 µM (inactive) | > 100 µM (inactive) | > 100 µM (inactive) | > 100 µM (inactive) | > 100 µM (inactive) | > 100 µM (inactive) | > 100 µM (inactive) |
| O=C(O)c1cc(O)nc(S)n1 | > 100 µM (inactive) | > 100 µM (inactive) | > 100 µM (inactive) | > 100 µM (inactive) | > 100 µM (inactive) | > 100 µM (inactive) | > 100 µM (inactive) | > 100 µM (inactive) | > 100 µM (inactive) | > 100 µM (inactive) | > 100 µM (inactive) | > 100 µM (inactive) |  | > 100 µM (inactive) | > 100 µM (inactive) | > 100 µM (inactive) | > 100 µM (inactive) | > 100 µM (inactive) | > 100 µM (inactive) | > 100 µM (inactive) |
| CCC12CCCN(Cc3ccccc3)C1c1c([nH]c3ccccc13)C(C(=O)OC)C2 (stereo not drawn) | > 10 µM (inactive) | > 10 µM (inactive) | > 10 µM (inactive) | > 10 µM (inactive) | 7.83 µM (inactive) | 6.87 µM (inactive) | > 10 µM (inactive) | > 10 µM (inactive) | > 10 µM (inactive) |  | > 10 µM (inactive) | > 10 µM (inactive) | > 10 µM (inactive) |  | > 10 µM (inactive) | > 10 µM (inactive) | > 10 µM (inactive) | > 10 µM (inactive) |  | > 10 µM (inactive) |
| CCOC(=O)C(O)(CC1=NC(C(=O)OC)(C(=O)OC)C(c2cccc(C=O)c2)O1)C(=O)OCC (stereo not drawn) | > 100 µM (inactive) | > 100 µM (inactive) | > 100 µM (inactive) | > 100 µM (inactive) | 25.3 µM (inactive) | > 100 µM (inactive) | > 100 µM (inactive) | > 100 µM (inactive) |  | > 100 µM (inactive) | > 100 µM (inactive) | > 100 µM (inactive) |  | > 100 µM (inactive) | > 100 µM (inactive) | > 100 µM (inactive) | > 100 µM (inactive) | > 100 µM (inactive) | > 100 µM (inactive) |  |
| CC(=O)Nc1ccc(C(=O)NN2C(=O)C(Cl)C2c2cc(Br)ccc2O)cc1 (stereo not drawn) | 5.46 µM (inactive) |  | 6.14 µM (inactive) | 11.2 µM (inactive) | 2.71 µM (inactive) | 9.46 µM (inactive) | 4.54 µM (inactive) | 3.84 µM (inactive) | 5.55 µM (inactive) | 3.09 µM (inactive) | 3.76 µM (inactive) | 3.88 µM (inactive) | 4.19 µM (inactive) | 4.86 µM (inactive) | 5.04 µM (inactive) | 3.93 µM (inactive) | 3.85 µM (inactive) | 4.11 µM (inactive) | 3.72 µM (inactive) | 1.91 µM (inactive) |
